Where “and” joins values, the source holds several entries; their conditions need not be identical. Equal entries are not always repeated. Where two headings read alike, the source gives them in different places.
Experiments:
[1] = biological target: human CB2 (hCB2) (Homo sapiens, UniProt P34972); assay: [3H]CP55,940 displacement binding at hCB2 membranes
[2] = biological target: human CB1 (hCB1) (Homo sapiens, UniProt P21554); assay: [3H]CP55,940 displacement binding at hCB1 membranes
[3] = biological target: hCB1 receptor (Homo sapiens, UniProt P21554); assay: Agonist-stimulated [35S]GTPγS binding, hCB1 membranes; conditions: for Emax: read-out: [35S]GTPγS Turnover CB1 Emax
Chain of hCB1 receptor (P21554 whole entry): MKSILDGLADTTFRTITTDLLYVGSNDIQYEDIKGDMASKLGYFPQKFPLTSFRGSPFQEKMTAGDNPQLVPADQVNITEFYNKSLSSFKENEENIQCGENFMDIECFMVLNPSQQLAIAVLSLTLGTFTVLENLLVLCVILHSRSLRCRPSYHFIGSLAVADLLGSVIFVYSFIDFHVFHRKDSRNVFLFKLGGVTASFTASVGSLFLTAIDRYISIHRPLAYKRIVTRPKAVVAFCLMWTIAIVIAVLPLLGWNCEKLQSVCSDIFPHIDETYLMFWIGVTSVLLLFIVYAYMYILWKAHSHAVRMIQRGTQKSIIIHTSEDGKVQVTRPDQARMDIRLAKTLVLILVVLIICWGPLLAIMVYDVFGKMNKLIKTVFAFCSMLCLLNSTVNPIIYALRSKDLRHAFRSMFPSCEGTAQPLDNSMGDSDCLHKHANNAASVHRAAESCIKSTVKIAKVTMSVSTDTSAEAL

[4] = biological target: hCB2 receptor (Homo sapiens, UniProt P34972); assay: Agonist-stimulated [35S]GTPγS binding, hCB2 membranes; conditions: for Emax: read-out: [35S]GTPγS Turnover CB2 Emax
Chain of hCB2 receptor (P34972 whole entry): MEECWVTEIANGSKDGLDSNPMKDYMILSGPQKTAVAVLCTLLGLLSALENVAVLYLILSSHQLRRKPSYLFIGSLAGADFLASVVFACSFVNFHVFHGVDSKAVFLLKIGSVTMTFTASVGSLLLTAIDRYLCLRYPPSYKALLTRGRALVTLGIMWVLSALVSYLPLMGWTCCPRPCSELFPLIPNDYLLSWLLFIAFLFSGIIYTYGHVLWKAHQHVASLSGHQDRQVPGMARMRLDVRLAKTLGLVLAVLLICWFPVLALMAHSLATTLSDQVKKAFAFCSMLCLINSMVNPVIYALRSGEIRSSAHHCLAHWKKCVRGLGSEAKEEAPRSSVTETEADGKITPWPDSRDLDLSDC

[5] = tested on: male C57BL/6 inbred mice; assay: THC drug discrimination; type: in vivo; conditions: for ED50: Mus musculus, ip, read-out: ED50 for substitution in THC discrimination; for Effect on response rate: compared to vehicle; for ED50 for substitution in THC discrimination: mice trained with 5.6 mg/kg THC i.p., value (95% confidence limits)
[6] = biological target: CB1 receptors; conditions: read-out: CB1 affinity; rat CB1 receptors ref Huffman et al., 2005; cited from earlier work

Chain of human CB2 (hCB2) (P34972 whole entry): as above
Chain of human CB1 (hCB1) (P21554 whole entry): as the sequence (P21554 whole entry) above

CCc1ccc(C(=O)c2cn(CCCCCF)c3ccccc23)c2ccccc12 [EAM-2201, (4-ethyl-1-naphthalenyl)[1-(5-fluoropentyl)-1H-indol-3-yl]-methanone]
Ki [1]: 0.38 nM | Ki [2]: 0.41 nM | EC50 [3]: 46.8 nM | Emax [3]: 270% | EC50 [4]: 91.9 nM | Emax [4]: 40.2% | ED50 [5]: 0.04 µmol/kg | Effect on response rate ([5]; across the dose range tested): no doses produced significant differences from vehicle

CCCCCc1cc(O)c2c(c1)OC(C)(C)[C@@H]1CCC(C)=C[C@@H]21 [THC, Δ^9-tetrahydrocannabinol, reference compound]
Effect on response rate ([5]; across the dose range tested): did not alter response rates | ED50 for substitution in THC discrimination [5]: 4.96 (3.41-7.21) μmol/kg

N#CCCCCn1cc(C(=O)c2cccc3ccccc23)c2ccccc21 [AM-2232, 5-(3-(1-naphthoyl)-1H-indol-1-yl)pentanenitrile]
Ki [1]: 11.2 nM | Ki [2]: 14.5 nM | EC50 [3]: 833 nM | Emax [3]: 204% | EC50 [4]: 406 nM | Emax [4]: 31.3% | Substitution for THC in drug discrimination ([5]; 1.0 mg/kg): full substitution | Effect on response rate ([5]; 1.0 mg/kg): reductions in response rates | ED50 [5]: 0.54 µmol/kg

Cc1ccc(C(=O)c2cn(CCCCCF)c3ccccc23)c2ccccc12 [MAM-2201, (1-(5-fluoropentyl)-1H-indol-3-yl)(4-methyl-1-naphthalenyl)-methanone]
Ki [1]: 0.59 nM | Ki [2]: 1.86 nM | EC50 [3]: 36.1 nM | Emax [3]: 310% | EC50 [4]: 1.93 nM | Potency for stimulating [35S]GTPγS turnover at CB2 relative to CP55,940 ([4]; more potent than CP55,940): approximately 4 fold | Emax [4]: 23.2% | Substitution for THC in drug discrimination ([5]; 0.3 mg/kg): full substitution | Effect on response rate ([5]; 0.3 mg/kg): reductions in response rates | ED50 [5]: 0.11 µmol/kg

CCCCCn1cc(C(=O)Cc2ccccc2C)c2ccccc21 [JWH-251, 2-(2-methylphenyl)-1-(1-pentyl-1H-indol-3-yl)ethenone]
Ki ([1]; read-out: CB2 Ki, [3H]CP55,940 displacement, hCB2, value (SEM)): 15 nM and 15.1 nM | Ki ([2]; read-out: CB1 Ki, [3H]CP55,940 displacement, hCB1, value (SEM)): 16 nM and 16.2 nM | [35S]GTPγS Turnover CB1 Emax ([3]; % maximal increase over basal, hCB1, value (SEM)): 227.6 (31.6) 3% | EC50 ([3]; read-out: [35S]GTPγS Turnover CB1 EC50, hCB1 membranes, value (SEM)): 918 nM | Ki [6]: 29 ± 3 nM | EC50 ([4]; read-out: [35S]GTPγS Turnover CB2 EC50, hCB2 membranes, value (SEM)): 1520 nM | ED50 for substitution in THC discrimination [5]: 4.07 (3.11-5.31) μmol/kg

CCCCCn1cc(C(=O)c2ccccc2I)c2ccccc21 [AM-679, (2-iodophenyl)(1-pentyl-1H-indol-3-yl)methanone]
Ki [1]: 2.1 nM | Ki [2]: 39.6 nM | EC50 [3]: 881 nM | Emax [3]: 132% | EC50 [4]: 19 nM | Emax [4]: 31.1% | ED50 [5]: 5.8 µmol/kg

CCCCCn1cc(C(=O)c2ccc(CC)c3ccccc23)c2ccccc21 [JWH-210, 4-ethylnaphthalen-1-yl-(1-pentylindol-3-yl)methanone]
Ki [1]: 0.94 nM | EC50 [3]: 116 nM | Emax [3]: 287% | EC50 [4]: 51 nM | Emax [4]: 43.6% | ED50 [5]: 0.33 µmol/kg

CN1CCCCC1Cn1cc(C(=O)c2ccccc2I)c2ccccc21 (stereo not shown) [AM-2233, 1-[(N-methylpiperidin-2-yl)methyl]-3-(2-iodobenzoyl)indole]
Ki [1]: 0.48 nM | Ki [2]: 6.63 nM | EC50 [3]: 213 nM | Emax [3]: 144% | EC50 [4]: 715 nM | Emax [4]: 21% | ED50 [5]: 0.42 µmol/kg

CN1CCCC[C@@H]1Cn1cc(C(=O)c2cccc3ccccc23)c2ccccc21 [AM-1220, (R)-(1-((1-methylpiperidin-2-yl)methyl)-1H-indol-3-yl)(naphthalen-1-yl)methanone]
Ki [1]: 0.26 nM | Emax [3]: 132% | [35S]GTPγS Turnover CB2 Emax ([4]; % maximal increase over basal, hCB2, value (SEM)): Not determinable | [35S]GTPγS Turnover CB2 EC50 ([4]; hCB2 membranes, value (SEM)): Not determinable | ED50 [5]: 0.26 µmol/kg

CCCCCCC(C)(C)c1ccc(C2CC(O)CCC2CCCO)c(O)c1 (single isomer, unassigned; (-)) [CP55,940, (-)-cis-3-[2-Hydroxy-4-(1,1-dimethylheptyl)phenyl]-trans-4-(3-hydroxypropyl)cyclohexanol, reference compound]
Substitution for THC in drug discrimination ([5]; 0.3 mg/kg): full substitution | Effect on response rate ([5]; 0.3 mg/kg): reductions in response rates | ED50 for substitution in THC discrimination [5]: 0.07 (0.04-0.14) μmol/kg
